Assay results: patent US5354862A, “Preparation and the use of halopropargylated cyclic quaternary ammonium compounds as antimicrobial agents” (Rohm and Haas Company, priority 1993, dated 1994)
Like-named read-outs stand apart in the source and are kept apart here.

Tests used:
Experiment in all cases: Broth two-fold serial dilution MIC test
Pseudomonas aeruginosa = type: cell-based, Pseudomonas aeruginosa (ATCC 15442); details: Table 2, Psae
How it was run: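 Broth two-fold serial dilution MIC (500 to 0.25 ppm) was run against Pseudomonas aeruginosa, with compound from 1% stock in acetone/methanol/water 5:3:2. Vessels inoculated with standardized broth-grown cells were incubated, then scored for growth. MIC is the lowest concentration giving complete growth inhibition.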

Aspergillus niger = type: cell-based, Aspergillus niger (ATCC 6275); details: Table 2, Anig, TSB media
How it was run: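 Two-fold broth serial dilution from 500 ppm down to 0.25 ppm, compound stock in acetone/methanol/water 5:3:2. Vessels inoculated with standardized spore suspension harvested from agar slants, incubated at a species-appropriate temperature, then scored for growth/no growth. MIC is the lowest concentration giving complete growth inhibition.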

Escherichia coli = type: cell-based, Escherichia coli (ATCC 11229); details: Table 2, Ecol
How it was run: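 Broth two-fold serial dilutions ran from 500 down to 0.25 ppm, prepared from a stock in acetone/methanol/water (5:3:2). Each tube received a standardized bacterial suspension and was incubated at a temperature suited to the species. MIC is the lowest concentration giving complete growth inhibition.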

Staphylococcus aureus = type: cell-based, Staphylococcus aureus (ATCC 6538); details: Table 2, Saur
How it was run: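 Broth two-fold serial dilution from 500 ppm down to 0.25 ppm, compound delivered from acetone/methanol/water stock, inoculated with standardized cell suspension and incubated at an organism-appropriate temperature. MIC is the lowest concentration giving complete growth inhibition.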

[1] = Pseudomonas aeruginosa, M9G media, read-out: MIC
[2] = Pseudomonas aeruginosa, TSB media, read-out: MIC
[3] = Aspergillus niger, read-out: MIC
[4] = Escherichia coli, M9G media, read-out: MIC
[5] = Escherichia coli, TSB media, read-out: MIC
[6] = Staphylococcus aureus, M9G media, read-out: MIC
[7] = Staphylococcus aureus, TSB media, read-out: MIC

Compound	MIC (Pseudomonas aeruginosa; [1])	MIC (Pseudomonas aeruginosa; [2])	MIC (Aspergillus niger; [3])	MIC (Escherichia coli; [4])	MIC (Escherichia coli; [5])	MIC (Staphylococcus aureus; [6])	MIC (Staphylococcus aureus; [7])	MIC (Pseudomonas aeruginosa; M9G media)	MIC (Pseudomonas aeruginosa; TSB media)	MIC (Aspergillus niger)	MIC (Escherichia coli; M9G media)	MIC (Escherichia coli; TSB media)	MIC (Staphylococcus aureus; M9G media)	MIC (Staphylococcus aureus; TSB media)
CCCCCCCCCCOC(=O)C[N+]1(CC#CI)CCOCC1 [Compound 66, 4-(decyioxycarbonyl)methyl-4-(3-iodopropargyl)-morpholiniurn 4methylbenzenesulfonate]	64 µg/mL	250 µg/mL	125 µg/mL	2 µg/mL	8 µg/mL	0.5 µg/mL	8 µg/mL							
CCCCCCCCCCOC(=O)C[N+]1(CC#CI)CCOCC1 [Compound 67, 4-(decyloxycarbonyl)methyl-4-(3-iodopropargyl)-morpholinium benzenesulfonate]								125 ppm	250 ppm	125 ppm	2 ppm	8 ppm	0.5 ppm	8 ppm
CCCCCCCCCCCCOC(=O)C[N+]1(CC#CI)CCOCC1 [Compound 68, 4-(dodecyloxycarbonyl)methyl-4-(3-iodopropargyl)-morpholinium 4-methylbenzenesulfonate]	32 µg/mL	64 µg/mL	16 µg/mL	2 µg/mL	8 µg/mL	0.5 µg/mL	2 µg/mL							
CCCCCCCCCCCCCC[N+]1(CC#CI)CCCC1 [Compound 69, 1-tetradecyl-1-(3-iodopropargyl)-pyrrolidinium bromide]								8 ppm	32 ppm	4 ppm	1 ppm	4 ppm	0.25 ppm	0.25 ppm
CCCCCCCCCCOC(=O)C[N+]1(CC#CI)CCCC1 [Compound 70, 1-(decyloxycarbonyl)methyl-1-(3-iodopropargyt)-pyrrolidinium benzenesulfonate]								125 ppm	250 ppm	32 ppm	2 ppm	8 ppm	1 ppm	2 ppm
CCCCCCCCCCCCCC[N+]1(CC#CI)CCOCC1 [Compound 71, 4-tetradecyl-4-(3-iodopropargyl)-morpholinium bromide]								8 ppm	32 ppm	4 ppm	1 ppm	4 ppm	0.25 ppm	0.25 ppm
CCCCCCCCCCCCCC[N+]1(CC#CI)CCOCC1 [Compound 72, 4-tetradecyl-4-(3-iodopropargyl)-rnorpholinium iodide]								16 ppm	64 ppm	4 ppm	0.5 ppm	4 ppm	0.25 ppm	0.25 ppm
IC#CC[N+]1(Cc2ccccc2)CCOCC1 [Compound 73, 4-benzyl-4-(3-iodopropargyi)-morpholinium 4-methylbenzenesulfonate]	> 500 µg/mL	> 500 µg/mL	125 µg/mL	125 µg/mL	125 µg/mL	125 µg/mL	250 µg/mL							
IC#CC[N+]1(Cc2ccccc2)CCOCC1 [Compound 74, 4-benzyl-4-(3-iodopropargyl)-morpholinium methanesulfonate]								> 500 ppm	> 500 ppm	64 ppm	64 ppm	125 ppm	125 ppm	250 ppm
CCCCCCCCCCCCOC(=O)C[N+]1(CC#CI)CCCC1 [Compound 75, 1-(dodecyloxycarbonyl)methyl-1-(3-iodopropargyl)-pyrrolidinium methanesulfonate]								32 ppm	125 ppm	8 ppm	2 ppm	8 ppm	0.25 ppm	2 ppm
CCCCCCCCCCCCOC(=O)C[N+]1(CC#CI)CCOCC1 [Compound 76, 4-(dodecyloxycarbonyl)methyl-4-(3-iodopropargyl)-morpholinium methanesulfonate]								64 ppm	125 ppm	32 ppm	2 ppm	8 ppm	0.25 ppm	2 ppm
CCCC[N+]1(CC#CI)CCCC1 [Compound 77, 1-n-butyl-1-(3-iodopropargyl)-pyrrolidinium bromide]								> 500 ppm	> 500 ppm	> 500 ppm	64 ppm	64 ppm	250 ppm	250 ppm
CCCCCCCCCC[N+]1(CC#CI)CCCC1 [Compound 78, 1-decyl-1-(3-iodopropargyl)-pyrrolidinium bromide]								250 ppm	500 ppm	8 ppm	2 ppm	4 ppm	0.25 ppm	2 ppm
CCCCCCCCCCCC[N+]1(CC#CI)CCCC1 [Compound 79, 1-dodecyl-1-(3-iodopropargyl)-pyrrolidinium bromide]								32 ppm	64 ppm	2 ppm	1 ppm	4 ppm	0.25 ppm	1 ppm
CCCCCCCCCCCCCCCC[N+]1(CC#CI)CCCC1 [Compound 80, 1-hexadecyl-1-(3-iodopropargyl)-pyrrolidinium bromide]								16 ppm	125 ppm	1 ppm	2 ppm	8 ppm	0.5 ppm	0.5 ppm
CCCCCCOC(=O)CCCCC[N+]1(CC#CI)CCOCC1 [Compound 81]	> 500 µg/mL	> 500 µg/mL	125 µg/mL		64 µg/mL	4 µg/mL	16 µg/mL				64 ppm			
CCCCCCOC(=O)CCCCC[N+]1(CC#CI)CCCC1 [Compound 82, 1-[5-(hexyloxycarbonyl)]pentyl-1-(3-iodopropargyl)-pyrrolidinium 4-methylbenzenesulfonate]	> 500 µg/mL	> 500 µg/mL		32 µg/mL	64 µg/mL	2 µg/mL	8 µg/mL			125 ppm				
CCCCCCOC(=O)CCCCC[N+]1(CC#CI)CCOCC1 [Compound 83, 4-[5-(hexyloxycarbonyl)]pentyl-4-(3-iodopropargyl)-morpholinium methanesulfonate]								> 500 ppm	> 500 ppm	125 ppm	16 ppm	32 ppm	4 ppm	8 ppm
CCCCCCOC(=O)CCCCC[N+]1(CC#CI)CCCC1 [Compound 84, 1-[5-(hexyloxycarbonyl)]pentyl-1-(3-iodopropargyl)-pyrrolidinium methanesulfonate]								> 500 ppm	> 500 ppm	32 ppm	16 ppm	32 ppm	2 ppm	8 ppm
CCCCCCCCCCCCCC[N+]1(CC#CI)CCCCC1 [Compound 85, 1-tetradecyl-1-(3-iodoproparygyl)-piperidinium n-butylsulfonate]								8 ppm	32 ppm	4 ppm	1 ppm	4 ppm	0.25 ppm	0.25 ppm
CCCCCCCCCCCCCC[N+]1(CC#CI)CCOCC1 [Compound 86, 4-tetradecyl-4-(3-iodopropargyl)-morpholinium n-butylsulfonate]								8 ppm	32 ppm	8 ppm	2 ppm	8 ppm	0.5 ppm	1 ppm
CCCCCCCCCCCCCC[N+]1(CC#CI)CCCC1 [Compound 87, 1.-tetradecyl-1-(3-iodopropargyl)-pyrrolidinium n-butylsulfonate]								16 ppm	64 ppm	4 ppm	2 ppm	4 ppm	0.25 ppm	0.25 ppm
CCCCCCCCCCCCCCC[N+]1(CC#CI)CCOCC1 [Compound 88, 4-pentadecyl-4-(3-iodopropargyl)-morpholinium methanesulfonate]	8 µg/mL	32 µg/mL	4 µg/mL	2 µg/mL	4 µg/mL	0.25 µg/mL	0.25 µg/mL							
CCCCCCCCCCCCC[N+]1(CC#CI)CCOCC1 [Compound 89, 4-tridecyl-4-(3-iodopropargyl)-morpholinium methanesulfonate]	16 µg/mL	64 µg/mL	8 µg/mL	2 µg/mL	8 µg/mL	1 µg/mL	2 µg/mL							
